The source of these data is US20260334439A1, “BCAT2 INHIBITORS” (Agios Pharmaceuticals, Inc., priority 2023, published 2026).

Molecules are shown by their SMILES.

This assay concerns the target T1, BCAT2 (Homo sapiens, UniProt O15382).
T1 sequence (O15382 28-392): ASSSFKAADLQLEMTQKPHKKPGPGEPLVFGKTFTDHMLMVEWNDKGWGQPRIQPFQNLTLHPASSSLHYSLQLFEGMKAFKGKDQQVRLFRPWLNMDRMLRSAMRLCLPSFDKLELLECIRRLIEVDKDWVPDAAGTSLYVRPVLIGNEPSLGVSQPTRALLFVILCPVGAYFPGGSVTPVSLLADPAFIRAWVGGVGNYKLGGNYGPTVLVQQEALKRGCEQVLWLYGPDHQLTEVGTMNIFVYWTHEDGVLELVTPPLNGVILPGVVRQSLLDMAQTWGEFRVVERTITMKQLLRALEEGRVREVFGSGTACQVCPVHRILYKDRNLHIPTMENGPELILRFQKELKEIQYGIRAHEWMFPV
Kind of assay: BCAT2 in vitro enzyme inhibition assay (hBCAT2, glutamate dehydrogenase/diaphorase/resazurin coupled fluorescence read). Type of assay: biochemical. The conditions noted are these: hBCAT2, 1 h preincubation at 25° C., one hour reaction; average where tested multiple times. The procedure: • 2×Buffer: 200 mM Tris pH 8.0, 300 mM NaCl, 0.1% BSA • 1.67×hBCAT2 Enzyme Mix: 0.33 μg/mL hBCAT2, 1× Buffer • 2.5×Substrate Mix: 460 µM L-leucine, 420 µM α-KetoGlutarate, 10 U/mL glutamate dehydrogenase, 10 mM NAD, […] diaphorase, […] Resazurin
BCAT2 enzyme stock solution was diluted to prepare a 1.67×hBCAT2 Enzyme Mix. 1 μL of test compound was first added to the reaction wells followed by 30 μL of 1.67×hBCAT2 Enzyme Mix and incubated at room temperature (25° C.) for one hour. Meanwhile the Substrate Mix was prepared. The reaction was initiated by the addition of 20 μL of the 2.5×Substrate Mix, bringing the final reaction mix of all components to 1×. Reactions were quenched after one hour by the addition of 25 μL of 6% SDS and reaction progress was measured via fluorescence read (Ex 540/Em 590).
Test compounds were prepared at 50×final concentration in DMSO, 1 to 3 dilutions were made for 10 points. The compounds were added to the assay as a 1 to 50 dilution (1 μL in 50 μL) to yield a top assay final concentration of 100 μM, decreasing 3-fold for 10 points. Each compound dilution series test also included an assay max (1 μL DMSO Added in lieu of compound, Full Reaction Components Included) and Min (1 μL DMSO Added in lieu of compound, 30 μl of 1.67×hBCAT2 Enzyme Mix replated by 30 μL of 1×Buffer). All tests were performed in technical duplicate.
Where a compound was tested multiple times, the average value of the tests is reported.
For `CN1CC(NC(=O)c2cc(Cl)ccc2F)CC(n2c(-c3ncccc3F)nc3cnc(-c4nc[nH]n4)cc32)C1` (stereo not shown) [Example 147, 5-chloro-2-fluoro-N-(5-(2-(3-fluoropyridin-2-yl)-6-(1H-1,2,4-triazol-3-yl)-1H-imidazo[4,5-c]pyridin-1-yl)-1-methylpiperidin-3-yl)benzamide], the half-maximal inhibitory concentration (IC50) is 0.1 to 0.5 µM.
With `CCN1C[C@H](NC(=O)c2cc(F)ccn2)C[C@H](n2c(-c3ccccc3F)nc3cnc(-c4nc[nH]n4)cc32)C1` [Example 148, N-((3R,5S)-1-ethyl-5-(2-(2-fluorophenyl)-6-(1H-1,2,4-triazol-3-yl)-1H-imidazo[4,5-c]pyridin-1-yl)piperidin-3-yl)-4-fluoropicolinamide] the figure was below 0.1 µM; with `CCN1C[C@@H](NC(=O)c2cc(F)ccn2)C[C@@H](n2c(-c3ccccc3F)nc3cnc(-c4nc[nH]n4)cc32)C1` [Example 149, N-((3S,5R)-1-ethyl-5-(2-(2-fluorophenyl)-6-(1H-1,2,4-triazol-3-yl)-1H-imidazo[4,5-c]pyridin-1-yl)piperidin-3-yl)-4-fluoropicolinamide], 0.5 to 1 µM.
Take `CN1C[C@@H](NC(=O)c2cc(Cl)ccc2OCCO)C[C@@H](n2c(-c3ccccc3F)nc3cnc(-c4nc[nH]n4)cc32)C1` [Example 151, 5-chloro-N-((3S,5R)-5-(2-(2-fluorophenyl)-6-(1H-1,2,4-triazol-3-yl)-1H-imidazo[4,5-c]pyridin-1-yl)-1-methylpiperidin-3-yl)-2-(2-hydroxyethoxy)benzamide]: the IC50 is 0.1 to 0.5 µM.
Under `CN1C[C@@H](NC(=O)c2cc(F)ccc2F)C[C@@H](n2c(-c3ccccc3F)nc3cnc(-c4nc[nH]n4)cc32)C1` [Example 152, 2,5-difluoro-N-((3S,5R)-5-(2-(2-fluorophenyl)-6-(1H-1,2,4-triazol-3-yl)-1H-imidazo[4,5-c]pyridin-1-yl)-1-methylpiperidin-3-yl)benzamide] stands 0.1 to 0.5 µM.
Regarding `CN1C[C@@H](NC(=O)c2cc(F)ccc2F)C[C@@H](n2c(-c3ccccc3OCCO)nc3cnc(-n4nccn4)cc32)C1` [Example 154, 2,5-difluoro-N-((3S,5R)-5-(2-(2-(2-hydroxyethoxy)phenyl)-6-(2H-1,2,3-triazol-2-yl)-1H-imidazo[4,5-c]pyridin-1-yl)-1-methylpiperidin-3-yl)benzamide], the IC50 is above 1 µM.
Under `CN1C[C@H](NC(=O)c2cc(F)ccc2F)C[C@H](n2c(-c3ccccc3OCCO)nc3cnc(-n4nccn4)cc32)C1` [Example 155, 2,5-difluoro-N-((3R,5S)-5-(2-(2-(2-hydroxyethoxy)phenyl)-6-(2H-1,2,3-triazol-2-yl)-1H-imidazo[4,5-c]pyridin-1-yl)-1-methylpiperidin-3-yl)benzamide] stands below 0.1 µM; under `CN1C[C@@H](NC(=O)c2cc(Cl)ccn2)C[C@@H](n2c(-c3ccccc3OCCO)nc3cnc(-n4nccn4)cc32)C1` [Example 156, 4-chloro-N-((3S,5R)-5-(2-(2-(2-hydroxyethoxy)phenyl)-6-(2H-1,2,3-triazol-2-yl)-1H-imidazo[4,5-c]pyridin-1-yl)-1-methylpiperidin-3-yl)picolinamide], above 1 µM.
Under `CN1C[C@H](NC(=O)c2cc(Cl)ccn2)C[C@H](n2c(-c3ccccc3OCCO)nc3cnc(-n4nccn4)cc32)C1` [Example 157, 4-chloro-N-((3R,5S)-5-(2-(2-(2-hydroxyethoxy)phenyl)-6-(2H-1,2,3-triazol-2-yl)-1H-imidazo[4,5-c]pyridin-1-yl)-1-methylpiperidin-3-yl)picolinamide] stands below 0.1 µM; under `CN1C[C@H](NC(=O)c2cc(F)ccc2F)C[C@H](n2c(-c3ccccc3OCCO)nc3cnc(-c4ncco4)cc32)C1` [Example 158, 2,5-difluoro-N-((3R,5S)-5-(2-(2-(2-hydroxyethoxy)phenyl)-6-(oxazol-2-yl)-1H-imidazo[4,5-c]pyridin-1-yl)-1-methylpiperidin-3-yl)benzamide], below 0.1 µM; under `CN1C[C@@H](NC(=O)c2cc(F)ccc2F)C[C@@H](n2c(-c3ccccc3OCCO)nc3cnc(-c4ncco4)cc32)C1` [Example 159, 2,5-difluoro-N-((3S,5R)-5-(2-(2-(2-hydroxyethoxy)phenyl)-6-(oxazol-2-yl)-1H-imidazo[4,5-c]pyridin-1-yl)-1-methylpiperidin-3-yl)benzamide], above 1 µM.
Under `CN1C[C@@H](NC(=O)c2cc(Cl)ccn2)C[C@@H](n2c(-c3ccccc3OCCO)nc3cnc(-c4ncco4)cc32)C1` [Example 160, 4-chloro-N-((3S,5R)-5-(2-(2-(2-hydroxyethoxy)phenyl)-6-(oxazol-2-yl)-1H-imidazo[4,5-c]pyridin-1-yl)-1-methylpiperidin-3-yl)picolinamide] stands above 1 µM; under `CN1C[C@H](NC(=O)c2cc(Cl)ccn2)C[C@H](n2c(-c3ccccc3OCCO)nc3cnc(-c4ncco4)cc32)C1` [Example 161, 4-chloro-N-((3R,5S)-5-(2-(2-(2-hydroxyethoxy)phenyl)-6-(oxazol-2-yl)-1H-imidazo[4,5-c]pyridin-1-yl)-1-methylpiperidin-3-yl)picolinamide], below 0.1 µM; under `CN1C[C@@H](NC(=O)c2cc(F)ccn2)C[C@@H](n2c(-c3ccccc3OCCO)nc3cnc(-c4ncccn4)cc32)C1` [Example 162, 4-fluoro-N-((3S,5R)-5-(2-(2-(2-hydroxyethoxy)phenyl)-6-(pyrimidin-2-yl)-1H-imidazo[4,5-c]pyridin-1-yl)-1-methylpiperidin-3-yl)picolinamide], 0.5 to 1 µM.
As for `CN1C[C@H](NC(=O)c2cc(F)ccn2)C[C@H](n2c(-c3ccccc3OCCO)nc3cnc(-c4ncccn4)cc32)C1` [Example 163, 4-fluoro-N-((3R,5S)-5-(2-(2-(2-hydroxyethoxy)phenyl)-6-(pyrimidin-2-yl)-1H-imidazo[4,5-c]pyridin-1-yl)-1-methylpiperidin-3-yl)picolinamide], the IC50 was below 0.1 µM.
With `CN1C[C@H](NC(=O)c2cc(Cl)ccn2)C[C@H](n2c(-c3ccccc3OCCO)nc3cnc(-c4ncccn4)cc32)C1` [Example 164, 4-chloro-N-((3R,5S)-5-(2-(2-(2-hydroxyethoxy)phenyl)-6-(pyrimidin-2-yl)-1H-imidazo[4,5-c]pyridin-1-yl)-1-methylpiperidin-3-yl)picolinamide] the figure was below 0.1 µM; with `CN1C[C@@H](NC(=O)c2cc(Cl)ccn2)C[C@@H](n2c(-c3ccccc3OCCO)nc3cnc(-c4ncccn4)cc32)C1` [Example 165, 4-chloro-N-((3S,5R)-5-(2-(2-(2-hydroxyethoxy)phenyl)-6-(pyrimidin-2-yl)-1H-imidazo[4,5-c]pyridin-1-yl)-1-methylpiperidin-3-yl)picolinamide], below 0.1 µM; with `CC(=O)N1C[C@@H](NC(=O)c2cc(F)ccn2)C[C@@H](n2c(-c3ccccc3F)nc3cnc(-c4nc(C)co4)cc32)C1` [Example 166, N-((3S,5R)-1-acetyl-5-(2-(2-fluorophenyl)-6-(4-methyloxazol-2-yl)-1H-imidazo[4,5-c]pyridin-1-yl)piperidin-3-yl)-4-fluoropicolinamide], below 0.1 µM.
Under `Cc1coc(-c2cc3c(cn2)nc(-c2ccccc2F)n3[C@@H]2CCC[C@H](N3Cc4ccc(F)cc4C3=O)[C@H]2O)n1` [Example 193, 6-fluoro-2-((1S,2S,3R)-3-(2-(2-fluorophenyl)-6-(4-methyloxazol-2-yl)-1H-imidazo[4,5-c]pyridin-1-yl)-2-hydroxycyclohexyl)isoindolin-1-one] stands below 0.1 µM; under `NC1CC(N2Cc3ccc(F)cc3C2=O)CC(n2c(-c3ccccc3F)nc3cnc(-c4nc[nH]n4)cc32)C1` (stereo not shown) [Example 196, 2-(3-amino-5-(2-(2-fluorophenyl)-6-(1H-1,2,4-triazol-3-yl)-1H-imidazo[4,5-c]pyridin-1-yl)cyclohexyl)-6-fluoroisoindolin-1-one], below 0.1 µM.
The molecule `CN1C[C@H](N2Cc3ccc(F)cc3C2=O)C[C@H](n2c(-c3ccccc3OCCO)nc3cnc(-c4nc[nH]n4)cc32)C1` [Example 197, 6-fluoro-2-((3R,5S)-5-(2-(2-(2-hydroxyethoxy)phenyl)-6-(1H-1,2,4-triazol-3-yl)-1H-imidazo[4,5-c]pyridin-1-yl)-1-methylpiperidin-3-yl)isoindolin-1-one] registered an IC50 below 0.1 µM.
For the molecule `CN1C[C@@H](N2Cc3ccc(F)cc3C2=O)C[C@@H](n2c(-c3ccccc3OCCO)nc3cnc(-c4nc[nH]n4)cc32)C1` [Example 198, 6-fluoro-2-((3S,5R)-5-(2-(2-(2-hydroxyethoxy)phenyl)-6-(1H-1,2,4-triazol-3-yl)-1H-imidazo[4,5-c]pyridin-1-yl)-1-methylpiperidin-3-yl)isoindolin-1-one], the IC50 lay in the range of 0.1 to 0.5 µM.
